Assay results as given in patent US20100062986A1, “METHOD TO TREAT BLOOD CELL DEPLETION” (ImmuneRegen Biosciences, Inc., priority 2006, published 2010).

Test system: mice exposed to a lethal dose of 60Co radiation
Assay: Radilex treatment of mice after lethal 60Co radiation exposure (survival, blood counts)
Type: in vivo, mice (C57BL/6J)
From the text: One purpose of the study is to determine the effects of Radilex™ ([Sar^9, Met(02)^11]-Substance P) after exposure to a lethal dose of ^60Co radiation exposure. Another purpose of the study is to determine if intra-muscular injections of Radilex™ can be as effective as aerosol inhalation of Radilex™ at 8Gy ^60Co radiation level.
Blood draws (2 animals per group rotating every 5 days) for erythrocytes, leukocytes and platelets were taken to assess anemia, neutropenia and thrombocytopenia. Counts of erythrocytes, leukocytes and platelets were taken to assess anemia, neutropenia and thrombocytopenia and act as indicators of bone marrow damage and/or immune system destruction.
The mice received Radilex™ treatment within 2 hours of radiation exposure. The Radilex™ dosage was administered in a volume of 0.01 ml in a daily single treatment via IM injection into the hind limb muscle a single time, for the duration of the study (30 days), or until death.
The following regimens were tested on groups of 9-11 mice:
10 mM Radilex™ single intramuscular treatment
1 mM Radilex™ single intramuscular treatment
1 mM Radilex™ daily intramuscular treatment
75 uM Radilex™ single intramuscular treatment
75 uM Radilex™ daily intramuscular treatment
10 uM Radilex™ daily via nebulizer
50 uM Radilex™ daily via nebulizer
75 uM Radilex™ daily via nebulizer
100 uM Radilex™ daily via nebulizer […]

Q: What does the source list for “[Sar^9, Met(02)^11]-Substance P [Radilex™]”?
A: Radioprotection: effects of lethal exposure (mice, lethal 60Co radiation, Radilex intramuscular or via nebulizer, first treatment within 2 hours of exposure): Reversed; Neutropenia and anemia (surviving animals after 60Co radiation, white cell count and hematocrit): Reversed
